Measured values taken from ChEMBL document CHEMBL3526042, “Mechanism-based inactivation of cytochrome P450 2B6 by methadone through destruction of prosthetic heme” (Drug Metab Dispos, 2012).

Experiments:
Type in all cases: ADME
Cytochrome P450 2B6 [1] = target: T1, Cytochrome P450 2B6 (Homo sapiens, UniProt P20813); assay: Irreversible inactivation of C-terminal His4-tagged human CYP2B6 lacking 21 N-terminal residues assessed as decrease in enzyme catalytic activity measured after overnight dialysis at 100 uM for 15 mins by spectral analysis in presence of NADPH; settings: 0.25 h
T1 sequence (P20813 whole entry): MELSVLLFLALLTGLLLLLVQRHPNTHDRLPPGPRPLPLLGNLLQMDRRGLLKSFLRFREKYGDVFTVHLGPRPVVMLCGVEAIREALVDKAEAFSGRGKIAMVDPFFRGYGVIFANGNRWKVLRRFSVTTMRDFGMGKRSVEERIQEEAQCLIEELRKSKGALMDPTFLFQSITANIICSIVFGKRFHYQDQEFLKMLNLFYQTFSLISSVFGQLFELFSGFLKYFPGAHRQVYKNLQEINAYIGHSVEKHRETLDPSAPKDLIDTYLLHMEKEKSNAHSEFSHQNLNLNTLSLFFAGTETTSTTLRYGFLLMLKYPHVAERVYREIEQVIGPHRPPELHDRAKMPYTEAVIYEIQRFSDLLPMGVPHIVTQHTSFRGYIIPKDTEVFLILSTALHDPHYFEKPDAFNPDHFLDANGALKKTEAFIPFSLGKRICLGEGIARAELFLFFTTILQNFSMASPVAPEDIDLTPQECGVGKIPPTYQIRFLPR

Cytochrome P450 2B6 [2] = target: T1, Cytochrome P450 2B6; assay: Inactivation of C-terminal His4-tagged human CYP2B6 lacking 21 N-terminal residues expressed in Escherichia coli C41 (DE3) assessed as decreases in fluorescence intensity of 7-hydroxy-4-trifluoromethylcoumarin up to 30 mins at 37 degC; settings: 0.5 h
Cytochrome P450 2B6 [3] = target: T1, Cytochrome P450 2B6; assay: Irreversible inactivation of C-terminal His4-tagged human CYP2B6 lacking 21 N-terminal residues assessed as decrease in CO difference spectrum measured after overnight dialysis at 100 uM for 15 mins by spectral analysis in presence of NADPH; settings: 0.25 h
Cytochrome P450 2B6 [4] = target: T1, Cytochrome P450 2B6; assay: Inactivation of C-terminal His4-tagged human CYP2B6 lacking 21 N-terminal residues expressed in Escherichia coli C41 (DE3) assessed as decreases in fluorescence intensity of 7-hydroxy-4-trifluoromethylcoumarin at 5 to 100 uM at 37 degC; settings: TDE = time-dependent effect
CYP2B6 = target: T2, CYP2B6 (Homo sapiens, UniProt P20813); assay: Inactivation of C-terminal His4-tagged human CYP2B6 lacking 21 N-terminal residues assessed as decrease in enzyme catalytic activity at 100 uM for 15 mins by spectral analysis in presence of NADPH
T2 sequence (P20813 whole entry): T1 sequence (P20813 whole entry)

## CCC(=O)C(CC(C)N(C)C)(c1ccccc1)c1ccccc1 (racemic) [METHADONE]
Cytochrome P450 2B6 [1]
  inhibition (INH): Active
Cytochrome P450 2B6 [2]
  inhibition (INH): Dose-dependent effect
Cytochrome P450 2B6 [3]
  inhibition (INH): Active
Cytochrome P450 2B6 [4]
  inhibition (INH): tde
CYP2B6
  inhibition at 0.25 h, 100 µM: 58%
